Results taken from PubChem BioAssay (NCI).
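These data come from cells grown in 96-well plates and exposed to compound for 48 hours at five concentrations. GI50 = concentration required for 50% inhibition of growth. At the TGI there is no net growth.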

Legend:
Test in all cases: DTP human tumour cell line panel, 48 h
786-0 renal = system: 786-0 renal
A498 renal = system: A498 renal
A549 NSCLC = system: A549 NSCLC
ACHN renal = system: ACHN renal
BT-549 breast = system: BT-549 breast
CAKI-1 renal = system: CAKI-1 renal
CCRF-CEM leukemia = system: CCRF-CEM leukemia
COLO 205 colon = system: COLO 205 colon
DU-145 prostate = system: DU-145 prostate
EKVX NSCLC = system: EKVX NSCLC
HCC-2998 colon = system: HCC-2998 colon
HCT-116 colon = system: HCT-116 colon
HCT-15 colon = system: HCT-15 colon
HL-60(TB) leukemia = system: HL-60(TB) leukemia
HOP-62 NSCLC = system: HOP-62 NSCLC
HOP-92 NSCLC = system: HOP-92 NSCLC
HS 578T breast = system: HS 578T breast
HT29 colon = system: HT29 colon
IGROV1 ovarian = system: IGROV1 ovarian
K-562 leukemia = system: K-562 leukemia
KM12 colon = system: KM12 colon
LOX IMVI melanoma = system: LOX IMVI melanoma
MALME-3M melanoma = system: MALME-3M melanoma
MCF7 breast = system: MCF7 breast
MDA-MB-231 breast = system: MDA-MB-231 breast
MDA-MB-435 = system: MDA-MB-435
MOLT-4 leukemia = system: MOLT-4 leukemia
NCI-H226 lung = system: NCI-H226 lung
NCI-H23 lung = system: NCI-H23 lung
NCI-H460 lung = system: NCI-H460 lung
NCI-H522 lung = system: NCI-H522 lung
NCI/ADR-RES ovarian = system: NCI/ADR-RES ovarian
OVCAR-3 ovarian = system: OVCAR-3 ovarian
OVCAR-4 ovarian = system: OVCAR-4 ovarian
OVCAR-5 ovarian = system: OVCAR-5 ovarian
OVCAR-8 ovarian = system: OVCAR-8 ovarian
PC-3 prostate = system: PC-3 prostate
RPMI-8226 leukemia = system: RPMI-8226 leukemia
RXF 393 renal = system: RXF 393 renal
SF-268 CNS = system: SF-268 CNS
SF-295 CNS = system: SF-295 CNS
SF-539 CNS = system: SF-539 CNS
SK-MEL-2 melanoma = system: SK-MEL-2 melanoma
SK-MEL-28 melanoma = system: SK-MEL-28 melanoma
SK-MEL-5 melanoma = system: SK-MEL-5 melanoma
SK-OV-3 ovarian = system: SK-OV-3 ovarian
SN12C renal = system: SN12C renal
SNB-19 CNS = system: SNB-19 CNS
SNB-75 CNS = system: SNB-75 CNS
SR leukemia = system: SR leukemia
SW-620 colon = system: SW-620 colon
T-47D breast = system: T-47D breast
TK-10 renal = system: TK-10 renal
U251 CNS = system: U251 CNS
UACC-257 melanoma = system: UACC-257 melanoma
UACC-62 melanoma = system: UACC-62 melanoma
UO-31 renal = system: UO-31 renal

For `C[C@]12CC[C@H](O)C[C@@H]1CC[C@@H]1[C@@H]2CC[C@@]2(C)[C@H]1CC[C@@H]2[C@](C)(O)CCc1ccc(F)cc1`, the GI50 (786-0 renal) was 6.14 µM, the TGI (786-0 renal) was 21 µM and the GI50 (A498 renal) was 2.4 µM. It also gave a TGI (A498 renal) of 15.6 µM, a GI50 (A549 NSCLC) of 5.04 µM and a TGI (A549 NSCLC) of 39.2 µM. For the same molecule, the GI50 (ACHN renal) was 5.81 µM, the TGI (ACHN renal) was 18.9 µM and the GI50 (BT-549 breast) was 3.85 µM. For the same molecule, the TGI (BT-549 breast) was 17.5 µM, the GI50 (CAKI-1 renal) was 5.43 µM and the TGI (CAKI-1 renal) was 20.1 µM. For the same molecule, the GI50 (CCRF-CEM leukemia) was 4.56 µM, the TGI (CCRF-CEM leukemia) was 59.7 µM and the GI50 (COLO 205 colon) was 8.81 µM. It also gave a TGI (COLO 205 colon) of 42.4 µM, a GI50 (DU-145 prostate) of 7.14 µM and a TGI (DU-145 prostate) of 23.7 µM. For the same molecule, the GI50 (EKVX NSCLC) was 2.27 µM, the TGI (EKVX NSCLC) was 18.1 µM and the GI50 (HCC-2998 colon) was 9.79 µM. The TGI (HCC-2998 colon) was 23.8 µM, the GI50 (HCT-116 colon) was 3.65 µM and the TGI (HCT-116 colon) was 16.4 µM. It also gave a GI50 (HCT-15 colon) of 3.82 µM, a TGI (HCT-15 colon) of 18.3 µM and a GI50 (HL-60(TB) leukemia) of 3.87 µM. The TGI (HL-60(TB) leukemia) was 24 µM, the GI50 (HOP-62 NSCLC) was 13.1 µM and the TGI (HOP-62 NSCLC) was 43.9 µM. It also gave a GI50 (HOP-92 NSCLC) of 4.22 µM, a TGI (HOP-92 NSCLC) of 22.5 µM and a GI50 (HS 578T breast) of 7.71 µM. It also gave a TGI (HS 578T breast) of 37.9 µM, a GI50 (HT29 colon) of 6.42 µM and a TGI (HT29 colon) of 36.7 µM. For the same molecule, the GI50 (IGROV1 ovarian) was 6.04 µM, the TGI (IGROV1 ovarian) was 20.7 µM and the GI50 (K-562 leukemia) was 1.88 µM. The TGI (K-562 leukemia) was > 100 µM, the GI50 (KM12 colon) was 4.22 µM and the TGI (KM12 colon) was 19.4 µM. It also gave a GI50 (LOX IMVI melanoma) of 3.41 µM, a TGI (LOX IMVI melanoma) of 15.1 µM and a GI50 (MALME-3M melanoma) of 17.9 µM. It also gave a TGI (MALME-3M melanoma) of 41.8 µM, a GI50 (MCF7 breast) of 2.55 µM and a TGI (MCF7 breast) of 15 µM. It also gave a GI50 (MDA-MB-231 breast) of 5.33 µM, a TGI (MDA-MB-231 breast) of 20.5 µM and a GI50 (MDA-MB-435) of 7.84 µM. The TGI (MDA-MB-435) was 25 µM, the GI50 (MOLT-4 leukemia) was 3.21 µM and the TGI (MOLT-4 leukemia) was 24.6 µM. The GI50 (NCI-H226 lung) was 5.97 µM, the TGI (NCI-H226 lung) was 24.8 µM and the GI50 (NCI-H23 lung) was 3.78 µM. The TGI (NCI-H23 lung) was 18.4 µM, the GI50 (NCI-H460 lung) was 3.38 µM and the TGI (NCI-H460 lung) was 14 µM. The GI50 (NCI-H522 lung) was 4.45 µM, the TGI (NCI-H522 lung) was 49.4 µM and the GI50 (NCI/ADR-RES ovarian) was 2.87 µM. It also gave a TGI (NCI/ADR-RES ovarian) of 13.9 µM, a GI50 (OVCAR-3 ovarian) of 4.72 µM and a TGI (OVCAR-3 ovarian) of 16.7 µM. For the same molecule, the GI50 (OVCAR-4 ovarian) was 1.77 µM, the TGI (OVCAR-4 ovarian) was 18.4 µM and the GI50 (OVCAR-5 ovarian) was 5.64 µM. The TGI (OVCAR-5 ovarian) was 19.6 µM, the GI50 (OVCAR-8 ovarian) was 8.35 µM and the TGI (OVCAR-8 ovarian) was 62.7 µM. It also gave a GI50 (PC-3 prostate) of 5.02 µM, a TGI (PC-3 prostate) of 30.7 µM and a GI50 (RPMI-8226 leukemia) of 2.4 µM. It also gave a TGI (RPMI-8226 leukemia) of 43.9 µM, a GI50 (RXF 393 renal) of 2.46 µM and a TGI (RXF 393 renal) of 10.8 µM. It also gave a GI50 (SF-268 CNS) of 8.46 µM, a TGI (SF-268 CNS) of 25.4 µM and a GI50 (SF-295 CNS) of 2.43 µM. The TGI (SF-295 CNS) was 10.9 µM, the GI50 (SF-539 CNS) was 6.94 µM and the TGI (SF-539 CNS) was 20.8 µM. It also gave a GI50 (SK-MEL-2 melanoma) of 11.4 µM, a TGI (SK-MEL-2 melanoma) of 51.9 µM and a GI50 (SK-MEL-28 melanoma) of 12.3 µM. The TGI (SK-MEL-28 melanoma) was 26.4 µM, the GI50 (SK-MEL-5 melanoma) was 1.32 µM and the TGI (SK-MEL-5 melanoma) was 6.81 µM. The GI50 (SK-OV-3 ovarian) was 16.1 µM, the TGI (SK-OV-3 ovarian) was 76.2 µM and the GI50 (SN12C renal) was 3.79 µM. It also gave a TGI (SN12C renal) of 15.7 µM, a GI50 (SNB-19 CNS) of 10.5 µM and a TGI (SNB-19 CNS) of 25.1 µM. The GI50 (SNB-75 CNS) was 4.07 µM, the TGI (SNB-75 CNS) was 26.9 µM and the GI50 (SR leukemia) was 2.11 µM. For the same molecule, the TGI (SR leukemia) was 22.3 µM, the GI50 (SW-620 colon) was 7.13 µM and the TGI (SW-620 colon) was 24.1 µM. For the same molecule, the GI50 (T-47D breast) was 1.95 µM, the TGI (T-47D breast) was 45.1 µM and the GI50 (TK-10 renal) was 16.7 µM. The TGI (TK-10 renal) was 56.4 µM, the GI50 (U251 CNS) was 10.9 µM and the TGI (U251 CNS) was 31 µM. For the same molecule, the GI50 (UACC-257 melanoma) was 4.53 µM, the TGI (UACC-257 melanoma) was 35.5 µM and the GI50 (UACC-62 melanoma) was 10.6 µM. It also gave a TGI (UACC-62 melanoma) of 26.7 µM, a GI50 (UO-31 renal) of 4.43 µM and a TGI (UO-31 renal) of 31.4 µM.
